We go through three compounds from patent US11535599B2, “Benzisoxazole derivative” (Sumitomo Pharma Co., Ltd., priority 2020, dated 2022).

Test [1] deals with harmaline-induced essential tremor model. Nature of the test: Anti-tremor effect in harmaline-induced essential tremor model. In kind it is in vivo, mouse. The settings on record: Examples 1, 13: 25 or 50 mg/kg, Example 14: 3.125-25 mg/kg oral; β-propranolol 10 mg/kg i.p. Here is the method: As an animal model of essential tremor, an animal administrated with harmaline is broadly used in its evaluation test. […] The effect of the present compounds for harmaline-acute-administration-induced tremor was studied. To male Crl: CD1 mice (6-7 weeks old) (CHARLES RIVER LABORATORIES JAPAN, INC.), harmaline (30 mg/kg) was intraperitoneally administered to induce tremor. The present compound (Example 1 (25 mg/kg or 50 mg/kg), Example 13 (25 mg/kg or 50 mg/kg), or Example 14 (3.125 mg/kg, 6.25 mg/kg, 12.5 mg/kg, or 25 mg/kg)) was orally administered to the mouse one hour before the administration of harmaline. And, saline or β-propranolol (10 mg/kg) which is a positive control compound was intraperitoneally administered to the mouse 20 minutes before the administration of harmaline. 35 minutes before the administration of harmaline, the mouse was put into a measurement cage (an acrylic cylinder set in a horizontal direction, φ 65 mm, length 145 mm), one cage to one mouse, said measurement cage was in a soundproof box of a startle response instrument (O'hara & Co., Ltd., Tokyo). The trembling that the mouse gave were recorded over time as tremor data. The animal was put into cage, and the data were recorded for 20 minutes just before (PRE) and just after (POST) the administration of harmaline. The time-series signal data were analyzed about frequency with an analysis software, VitalTracer and BIMUTAS II-A (both, Kissei Comtech Co., Ltd., Matsumoto-shi). At 12-15 Hz or 12-18 Hz as a frequency which increases with tremor, the spectrum amounts were extracted, and the tremor intensity T of each subject was calculated according to the following formula. T=POST/PRE

Another test concerns the target human Cav3.1 (Homo sapiens (Human), UniProt O43497). Nature of the test: T-type calcium channel inhibitory activity, whole-cell patch-clamp with HEK293 cell. Format: cell-based. The protocol:
(§1) The inhibitory activity of the present compounds for T-type calcium channel was measured by whole-cell patch-clamp method with HEK293 cell (vendor of HEK 293 cell: ATCC, Manassas, Va., USA, builder of expressing cell: ChanTest Corporation., Cleveland, Ohio, USA), in which human Cav3.1, human Cav3.2, or human Cav3.3 is expressed. The culture medium used for HEK293 cell was prepared by adding fetal bovine serum (10%), sodium penicillin G (100 U/mL), streptomycin sulfate (100 μg/mL), and G418 (500 μg/mL) to a mixture medium of Dulbecco's modified Eagle's medium/Ham's F-12 medium. The whole-cell current was evaluated with IonWorks Barracuda system and Population Patch Clamp (both are provided by Molecular Device Corporation, Union City, Calif., USA). The extracellular recording solution used during the recording was Hanks' balanced salt solution. The internal recording solution used herein was 50 mmol/L CsCl, 90 mmol/L CsF, 5 mmol/L MgCl2, 1 mmol/L glycol ether diamine tetraacetic acid (EGTA), and 10 mmol/L 4-(2-hydroxyethyl)piperazine-1-ethanesulfonic acid (HEPES (pH 7.2). The holding voltage was held at −90 mV, then changed to −65 mV. 60 seconds later, −20 mV pulse was added thereto for 200 millisecond to activate the channel on plasma membrane and generate calcium current. The calcium current was recorded with an amplifier of IonWorks Barracuda system, and analyzed with a program of the system (Version 2.0.2). The record of the calcium current was obtained twice, before and after the addition of the compound. In the measurement after adding the compound, the cells were exposed to the recording solution containing the compound for more than 5 minutes and then the current was measured. In the analyses, the ratio of current readout after the compound addition per current readout before the compound addition was calculated, the calculated value was subtracted from one, and the obtained value was converted to percentage. […] The value obtained from each compound was canonicalized based on the two ends of values to obtain each inhibitory rate. The positive control compound used herein was TTA-A2 which is known as T-type calcium channel inhibitor. IC50 value was calculated with Hill equation.
(§2) Each inhibitory rate (%) against T-type calcium channel at the evaluation concentration of the present compound (600 μmol/L) is shown in Table 12, in which the parenthesized values are IC50 values (μmol/L)) calculated from the dose-reactive test.
(In general: Patch clamp records ionic current or voltage across a cell membrane.)

A further test addresses human Cav3.2 (Homo sapiens (Human), UniProt O95180). Described as above. In kind it is cell-based. Here is the method:
as §1, §2

A further test has as its target human Cav3.3 (Homo sapiens (Human), UniProt Q9P0X4). The description is as above. Format: cell-based. Here is the method:
as §1, §2

Test [2] relates to unilateral lesion model of nigrostriatal dopamine neuron induced with 6-OHDA. Nature of the test: Extending duration of levodopa-induced rotational behavior in 6-OHDA unilateral lesion model. In kind it is in vivo, rat. The settings on record: Examples 10 or 30 mg/kg oral; rasagiline 0.6 mg/kg; with levodopa 5 mg/kg i.p.
The target of the next test is Rat striatum MAOB (Rattus norvegicus (Rat), UniProt P19643). Briefly: Activity for inhibiting monoamine oxidase B (MAOB). In kind it is biochemical. The settings on record: [14C] β-PEA substrate; read-out: Rat striatum MAOB IC50. The protocol: MAOB is an enzyme involved in oxidative de-amino acid reaction of an endogenous monoamine neurotransmitter such as dopamine. […] The effect of the present compounds for inhibiting MAOB in rat striatum and simian striatum was tested.
Mitochondria⋅synaptosome fraction containing MAOB was prepared according to the following procedure. To striata of male Slc: Wistar rat (Japan SLC, Inc.) or male cynomolgus monkey (HAMRI CO., LTD.) was added 0.32 mol/L aqueous sucrose by 10 mL per 1 gram as wet weight of the tissue, and the mixture was homogenized. The homogenate was centrifuged at 4° C. at 1,000 g for 10 minutes, and the obtained supernatant was centrifuged again at 4° C. at 17,200 g for 20 minutes. To the obtained precipitate was added a prepared buffer solution (10 mmol/L Tris-HCl buffer solution (pH 7.4), 0.25 mol/L aqueous sucrose, 0.5 mmol/L EDTA-2K) by 10 mL per 1 gram as wet weight of the original tissue, and the mixture was centrifuged again at 4° C. at 17,200 g for 20 minutes. To the obtained precipitate was added the prepared buffer solution by 40 mL per 1 gram as wet weight of the original tissue. The mixture was suspended to be used as an enzyme homogenate solution.
As a substance to be degraded by MAOB, ^14C-labeled β-phenylethylamine ([^14C] β-PEA) was used. [^14C] β-PEA and the present compound solution diluted to each concentration were incubated with the enzyme homogenate solution at 37° C. for a given period, and then the reaction was stopped by adding 3 mol/L cold HCl thereto. The reaction product was extracted with a mixture of water-saturated toluene and ethyl acetate (1:1). The supernatant organic layer was separated, a liquid scintillation cocktail (ACSII, GE Healthcare) was added to the separated organic layer, and the radioactivity was measured with a liquid scintillation counter (TRI-CARB 3100TR, Packard). The IC50 value of each compound was determined based on two parameter logistic model with the inhibitory data of each concentration, said data were obtained from plural trials.

Another test deals with human CA-II (Homo sapiens (Human), UniProt P00918). Briefly: Activity for inhibiting carbonic anhydrase (CA). In kind it is biochemical. The settings on record: 4-nitrophenyl acetate substrate. Here is the method: CA is a zinc metalloenzyme family which catalyzes reversible hydration between carbon dioxide, and bicarbonate and proton.
As a substance for decomposition by CA-II, 4-nitrophenyl acetate was used herein. 4-Nitrophenyl acetate is […] with CA-II to produce 4-nitrophenol. […] To the diluted solution were added […] (final concentration: 5 mmol/L) and the present compound of each concentration, and the mixture was incubated at 37° C. under shading for 30 minutes. […] The IC50 of the compound was obtained through the two-parameter logistic model with the inhibitory rate data in each concentration which was obtained from plural trials.

Another test has as its system mouse elevated plus maze. Briefly: Anxiolytic-like action, mouse elevated plus maze. In kind it is in vivo. To be noted: Example 13 at 10 mg/kg or more oral; diazepam 3 mg/kg oral. The protocol: In Parkinson's disease, psychiatric symptom (e.g. depression, anxiety) is known as one of its non-motor symptoms. The anxiolytic-like action of the present invention was evaluated with mouse elevated plus maze. The present test is broadly used as a method for evaluating the anxiolytic-like action of agents.
In the present test, male Crl: CD1 (ICR) mice (CHARLES RIVER LABORATORIES JAPAN, INC.) were used. One hour before the test was started, the solvent, the compound of Example 13 (3 mg/kg, 10 mg/kg, 30 mg/kg, or 100 mg/kg), or diazepam (3 mg/kg) which is a positive control was orally administered to the mouse. The mouse was put into a center platform in which the illuminance was adjusted to 80-100 Lux level. The head of the mouse was set toward the closed arm, and then the test was started. The mouse was allowed to explore freely for 5 minutes. When ⅓ of the mouse's body entered the arm, the behavior was counted as arm entry. And, the time spent in the open arm was also measured with a stopwatch. The ratio of the count of the open arm entry per the count of the all arm entry, and the ratio of the time spent in the open arm per the total exploration time (5 minutes) were calculated. […] Thus, the ratio of the count of the open arm entry per the count of the all arm entry, and the ratio of the time spent in the open arm per the total exploration time tend to be small values. When these ratios in the drug administration group are higher than those of the solvent administration group, it can be judged that the drug has anxiolytic-like action.

Structures are written as SMILES.

Chain of human Cav3.2 (O95180 whole entry): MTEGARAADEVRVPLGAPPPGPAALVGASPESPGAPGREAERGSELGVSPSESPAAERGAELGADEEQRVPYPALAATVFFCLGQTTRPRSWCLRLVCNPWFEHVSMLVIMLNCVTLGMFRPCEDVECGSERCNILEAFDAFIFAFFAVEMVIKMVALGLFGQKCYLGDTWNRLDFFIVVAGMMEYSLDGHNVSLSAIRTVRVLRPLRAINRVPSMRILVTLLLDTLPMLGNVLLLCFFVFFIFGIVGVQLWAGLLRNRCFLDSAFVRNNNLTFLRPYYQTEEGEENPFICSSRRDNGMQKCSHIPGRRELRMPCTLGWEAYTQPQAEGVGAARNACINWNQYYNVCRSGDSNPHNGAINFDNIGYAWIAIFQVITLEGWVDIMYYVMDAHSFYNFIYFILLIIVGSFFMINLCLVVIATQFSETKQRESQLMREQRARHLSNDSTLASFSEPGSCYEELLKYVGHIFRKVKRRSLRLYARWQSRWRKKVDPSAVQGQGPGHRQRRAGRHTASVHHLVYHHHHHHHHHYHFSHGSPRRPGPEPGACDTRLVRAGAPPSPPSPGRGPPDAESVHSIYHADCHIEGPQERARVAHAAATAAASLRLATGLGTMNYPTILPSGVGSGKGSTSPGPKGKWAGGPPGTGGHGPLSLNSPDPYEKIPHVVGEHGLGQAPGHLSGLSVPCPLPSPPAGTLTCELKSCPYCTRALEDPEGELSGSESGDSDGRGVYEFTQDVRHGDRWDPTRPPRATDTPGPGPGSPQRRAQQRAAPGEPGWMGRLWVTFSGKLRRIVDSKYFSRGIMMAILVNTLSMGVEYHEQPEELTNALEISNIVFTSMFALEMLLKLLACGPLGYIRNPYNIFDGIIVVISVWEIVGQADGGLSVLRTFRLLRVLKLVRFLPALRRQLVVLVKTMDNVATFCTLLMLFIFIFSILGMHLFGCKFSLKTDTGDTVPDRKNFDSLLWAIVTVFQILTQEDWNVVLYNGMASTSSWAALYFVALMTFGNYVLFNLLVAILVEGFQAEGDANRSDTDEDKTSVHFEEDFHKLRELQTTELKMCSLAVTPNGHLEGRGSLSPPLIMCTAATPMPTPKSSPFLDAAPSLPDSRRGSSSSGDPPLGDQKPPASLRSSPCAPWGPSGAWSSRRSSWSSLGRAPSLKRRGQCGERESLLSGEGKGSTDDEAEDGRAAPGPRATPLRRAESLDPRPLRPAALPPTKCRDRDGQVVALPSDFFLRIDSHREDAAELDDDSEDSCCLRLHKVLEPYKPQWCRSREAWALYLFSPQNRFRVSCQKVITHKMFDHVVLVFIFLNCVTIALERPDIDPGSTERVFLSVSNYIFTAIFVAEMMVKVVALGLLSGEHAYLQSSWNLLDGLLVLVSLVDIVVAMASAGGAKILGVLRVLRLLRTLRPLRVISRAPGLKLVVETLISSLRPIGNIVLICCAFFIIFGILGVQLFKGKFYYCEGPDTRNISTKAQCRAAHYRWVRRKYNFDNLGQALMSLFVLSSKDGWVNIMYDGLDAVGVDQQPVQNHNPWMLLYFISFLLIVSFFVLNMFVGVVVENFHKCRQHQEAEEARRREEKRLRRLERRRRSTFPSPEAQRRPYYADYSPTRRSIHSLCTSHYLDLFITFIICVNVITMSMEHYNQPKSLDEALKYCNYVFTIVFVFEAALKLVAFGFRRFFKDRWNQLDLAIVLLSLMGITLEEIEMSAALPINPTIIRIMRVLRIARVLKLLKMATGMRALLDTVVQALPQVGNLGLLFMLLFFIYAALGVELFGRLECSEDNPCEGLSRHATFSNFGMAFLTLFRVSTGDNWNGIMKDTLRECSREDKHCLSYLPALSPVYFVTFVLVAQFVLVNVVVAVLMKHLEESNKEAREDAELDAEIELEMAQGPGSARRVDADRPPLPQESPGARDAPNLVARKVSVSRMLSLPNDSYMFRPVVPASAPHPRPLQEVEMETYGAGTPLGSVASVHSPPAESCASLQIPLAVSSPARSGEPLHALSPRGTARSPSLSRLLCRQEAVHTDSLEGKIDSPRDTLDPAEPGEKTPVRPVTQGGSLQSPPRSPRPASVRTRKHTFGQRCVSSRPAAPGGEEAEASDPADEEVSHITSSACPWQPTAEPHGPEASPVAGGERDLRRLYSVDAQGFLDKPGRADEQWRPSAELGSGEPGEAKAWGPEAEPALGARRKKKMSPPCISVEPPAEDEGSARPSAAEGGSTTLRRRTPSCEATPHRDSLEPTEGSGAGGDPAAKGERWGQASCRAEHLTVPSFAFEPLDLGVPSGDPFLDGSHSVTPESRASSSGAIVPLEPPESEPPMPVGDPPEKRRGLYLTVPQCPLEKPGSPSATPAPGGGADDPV
Chain of human Cav3.1 (O43497 whole entry): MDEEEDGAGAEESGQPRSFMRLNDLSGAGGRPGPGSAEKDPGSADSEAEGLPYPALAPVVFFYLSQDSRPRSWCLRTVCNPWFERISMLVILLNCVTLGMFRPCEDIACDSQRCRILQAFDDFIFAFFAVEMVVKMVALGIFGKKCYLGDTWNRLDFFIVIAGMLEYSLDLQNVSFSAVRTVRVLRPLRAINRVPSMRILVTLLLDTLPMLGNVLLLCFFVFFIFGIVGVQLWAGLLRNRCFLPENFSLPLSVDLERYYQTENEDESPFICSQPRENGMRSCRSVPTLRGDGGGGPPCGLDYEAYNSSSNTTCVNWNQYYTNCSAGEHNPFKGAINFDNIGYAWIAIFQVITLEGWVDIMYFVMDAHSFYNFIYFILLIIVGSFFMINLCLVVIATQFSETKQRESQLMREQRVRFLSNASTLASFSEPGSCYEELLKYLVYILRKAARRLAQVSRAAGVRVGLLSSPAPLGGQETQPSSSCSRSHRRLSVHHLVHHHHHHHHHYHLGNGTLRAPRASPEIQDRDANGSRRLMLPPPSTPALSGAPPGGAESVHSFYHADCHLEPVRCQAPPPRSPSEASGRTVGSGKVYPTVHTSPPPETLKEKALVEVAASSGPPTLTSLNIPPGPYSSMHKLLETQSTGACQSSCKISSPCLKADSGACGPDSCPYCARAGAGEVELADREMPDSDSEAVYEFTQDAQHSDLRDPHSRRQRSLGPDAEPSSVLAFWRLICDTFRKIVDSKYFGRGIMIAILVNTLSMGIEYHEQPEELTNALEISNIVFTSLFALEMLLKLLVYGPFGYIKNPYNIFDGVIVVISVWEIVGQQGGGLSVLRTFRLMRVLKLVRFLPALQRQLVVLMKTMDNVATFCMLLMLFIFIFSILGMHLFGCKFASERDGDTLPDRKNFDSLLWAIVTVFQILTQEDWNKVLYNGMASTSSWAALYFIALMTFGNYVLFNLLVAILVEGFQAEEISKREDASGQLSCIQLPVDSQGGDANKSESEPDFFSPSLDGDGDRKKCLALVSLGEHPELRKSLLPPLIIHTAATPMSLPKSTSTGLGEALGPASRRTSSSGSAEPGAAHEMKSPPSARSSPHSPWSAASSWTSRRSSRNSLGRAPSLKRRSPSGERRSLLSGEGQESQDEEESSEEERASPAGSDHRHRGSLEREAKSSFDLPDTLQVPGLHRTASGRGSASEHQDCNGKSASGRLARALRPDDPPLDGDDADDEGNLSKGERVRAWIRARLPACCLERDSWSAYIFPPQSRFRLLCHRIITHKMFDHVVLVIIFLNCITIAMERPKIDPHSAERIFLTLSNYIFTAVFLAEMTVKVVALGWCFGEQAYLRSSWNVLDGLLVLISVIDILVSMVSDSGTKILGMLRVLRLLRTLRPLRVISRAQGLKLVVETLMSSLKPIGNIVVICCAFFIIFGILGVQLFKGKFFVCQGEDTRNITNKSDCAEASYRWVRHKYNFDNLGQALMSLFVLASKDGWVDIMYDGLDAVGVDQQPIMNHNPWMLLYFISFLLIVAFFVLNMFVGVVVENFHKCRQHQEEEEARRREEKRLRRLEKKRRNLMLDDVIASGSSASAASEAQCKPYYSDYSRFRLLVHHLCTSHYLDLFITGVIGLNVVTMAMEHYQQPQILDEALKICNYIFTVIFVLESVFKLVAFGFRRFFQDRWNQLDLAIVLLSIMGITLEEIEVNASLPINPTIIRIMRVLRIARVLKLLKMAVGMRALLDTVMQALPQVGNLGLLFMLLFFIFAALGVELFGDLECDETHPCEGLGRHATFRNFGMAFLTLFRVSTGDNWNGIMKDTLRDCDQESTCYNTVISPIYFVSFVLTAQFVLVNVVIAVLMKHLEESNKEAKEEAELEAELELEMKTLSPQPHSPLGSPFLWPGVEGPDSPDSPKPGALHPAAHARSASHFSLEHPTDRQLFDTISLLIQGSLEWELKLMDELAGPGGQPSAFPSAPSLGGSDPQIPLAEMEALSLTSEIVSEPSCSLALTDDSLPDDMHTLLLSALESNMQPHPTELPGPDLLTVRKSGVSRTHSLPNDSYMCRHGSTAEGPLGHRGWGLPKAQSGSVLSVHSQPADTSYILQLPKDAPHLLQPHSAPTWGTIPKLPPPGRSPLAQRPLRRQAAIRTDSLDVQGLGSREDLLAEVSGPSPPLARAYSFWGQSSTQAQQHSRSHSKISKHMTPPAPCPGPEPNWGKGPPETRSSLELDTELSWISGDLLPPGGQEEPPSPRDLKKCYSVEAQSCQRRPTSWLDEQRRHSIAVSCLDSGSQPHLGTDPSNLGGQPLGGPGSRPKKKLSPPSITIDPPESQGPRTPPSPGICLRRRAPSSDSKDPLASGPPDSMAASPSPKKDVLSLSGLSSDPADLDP

As for `CC(C)NCC(O)COc1cccc2ccccc12` (stereo not drawn) [β-Propranolol, β-propranolol, reference compound], in test [1], the harmaline-induced tremor intensity entry is on record as “significantly inhibited harmaline-induced tremor”.
What is called IC50 is the concentration at which inhibition is half-maximal. For `C[C@@H](c1noc2ccccc12)S(N)(=O)=O` [Example 14, (1S)-1-(1,2-benzoxazol-3-yl)ethane-1-sulfonamide], the inhibition at 600 µM was determined as 49.6% at human Cav3.1 (HEK293, 600 μmol/L, read-out: Cav3.1 % inhibitory rate); 33.8% on human Cav3.2 (HEK293, 600 μmol/L, read-out: Cav3.2 % inhibitory rate); 31.8% on human Cav3.3 (HEK293, 600 μmol/L, read-out: Cav3.3 % inhibitory rate). The IC50 is 549 µM at human Cav3.1 (dose-reactive test, read-out: Cav3.1 IC50 (parenthesized)); 839 µM at human Cav3.2 (dose-reactive test, read-out: Cav3.2 IC50 (parenthesized)); 888 µM at human Cav3.3 (dose-reactive test, read-out: Cav3.3 IC50 (parenthesized)); over 600 µM at Rat striatum MAOB; 3.5 µM against human CA-II. In test [2], the “rotational number in the late phase (100-120 minutes)” value is given as “significantly increased the rotational number in the late phase”. In addition, the harmaline-induced tremor intensity result in test [1] was “inhibited harmaline-induced tremor”.
On to `CN1C(=O)CN=C(c2ccccc2)c2cc(Cl)ccc21` [Diazepam, diazepam, reference compound], for which, in the test on mouse elevated plus maze, the “count of the open arm entry” value is listed as “increase significantly” and the “time spent in the open arm” value is “increase significantly”.
